In one assay the test system is HCT116 cells. As to the kind of experiment: In vitro cytotoxicity measured by the cell colony formation assay. The following applies: HCT116 cells, 72 h incubation with drug, colonies counted after 7 days; ID50 = drug concentration producing 50% inhibition of colony formation; read-out: IN VITRO ID 50 (nm) HCT116. Type of assay: cell-based. The essentials: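 Colony-forming survival was scored 7 days after a 72 h, 37 °C compound exposure followed by washout into fresh medium.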
In the case of `COC(=O)O[C@H]1C(=O)[C@@]2(C)C([C@H](OC(=O)c3ccccc3)[C@]3(O)C[C@H](OC(=O)[C@H](O)[C@H](C=C(C)C)NC(=O)OC(C)(C)C)C(C)=C1C3(C)C)[C@]1(OC(C)=O)CO[C@@H]1C[C@@H]2O` (stereo partly drawn) [Compound 1999], the IC50 was < 1 nM. With `COC(=O)O[C@H]1C(=O)[C@@]2(C)C([C@H](OC(=O)c3ccccc3)[C@]3(O)C[C@H](OC(=O)[C@H](O)[C@@H](NC(=O)OC(C)(C)C)c4ccccn4)C(C)=C1C3(C)C)[C@]1(OC(C)=O)CO[C@@H]1C[C@@H]2O` (stereo partly drawn) [Compound 2002], the IC50 is < 1 nM. As to `COC(=O)O[C@H]1C(=O)[C@@]2(C)C([C@H](OC(=O)c3ccccc3)[C@]3(O)C[C@H](OC(=O)[C@H](O)[C@@H](NC(=O)OC(C)(C)C)c4cccnc4)C(C)=C1C3(C)C)[C@]1(OC(C)=O)CO[C@@H]1C[C@@H]2O` (stereo partly drawn) [Compound 2011], the IC50 was < 10 nM.

Consider `COC(=O)O[C@H]1C(=O)[C@@]2(C)C([C@H](OC(=O)c3ccccc3)[C@]3(O)C[C@H](OC(=O)[C@H](O)[C@@H](NC(=O)OC(C)(C)C)c4ccncc4)C(C)=C1C3(C)C)[C@]1(OC(C)=O)CO[C@@H]1C[C@@H]2O` (stereo partly drawn) [Compound 2020], for which the IC50 is < 1 nM.

On to `COC(=O)O[C@H]1C(=O)[C@@]2(C)C([C@H](OC(=O)c3ccccc3)[C@]3(O)C[C@H](OC(=O)[C@H](O)[C@@H](NC(=O)OC(C)(C)C)c4ccoc4)C(C)=C1C3(C)C)[C@]1(OC(C)=O)CO[C@@H]1C[C@@H]2O` (stereo partly drawn) [Compound 2032], for which the IC50 is < 1 nM.

Take `COC(=O)O[C@H]1C(=O)[C@@]2(C)C([C@H](OC(=O)c3ccccc3)[C@]3(O)C[C@H](OC(=O)[C@H](O)[C@@H](NC(=O)OC(C)(C)C)c4cccs4)C(C)=C1C3(C)C)[C@]1(OC(C)=O)CO[C@@H]1C[C@@H]2O` (stereo partly drawn) [Compound 2044]: the IC50 is < 1 nM. As to `COC(=O)O[C@H]1C(=O)[C@@]2(C)C([C@H](OC(=O)c3ccccc3)[C@]3(O)C[C@H](OC(=O)[C@H](O)[C@@H](NC(=O)OC(C)(C)C)c4ccsc4)C(C)=C1C3(C)C)[C@]1(OC(C)=O)CO[C@@H]1C[C@@H]2O` (stereo partly drawn) [Compound 2050], the IC50 is < 1 nM.

Still in this assay, the particulars now being: HCT116 colony formation; 72 h drug incubation, colonies counted after 7 days; Example 10, C-10 ester/C-7 hydroxy taxanes; read-out: IN VITRO ID 50 (nm) HCT116.
Regarding `CC(=O)OC12COC1CC(O)C1(C)C(=O)C(OC(=O)c3cccs3)C3=C(C)C(OC(=O)C(O)C(NC(=O)OC(C)(C)C)c4ccc([N+](=O)[O-])cc4)CC(O)(C(OC(=O)c4ccccc4)C21)C3(C)C` (stereo not drawn) [Compound 1911], the IC50 is < 10 nM. Same read-out and setting: next, `CC(=O)OC12COC1CC(O)C1(C)C(=O)C(OC(=O)c3cccs3)C3=C(C)C(OC(=O)C(O)C(NC(=O)OC(C)(C)C)c4ccoc4)CC(O)(C(OC(=O)c4ccccc4)C21)C3(C)C` (stereo not drawn) [Compound 1923]: < 1 nM; `CC(=O)OC12COC1CC(O)C1(C)C(=O)C(OC(=O)c3cccs3)C3=C(C)C(OC(=O)C(O)C(NC(=O)OC(C)(C)C)c4ccsc4)CC(O)(C(OC(=O)c4ccccc4)C21)C3(C)C` (stereo not drawn) [Compound 1939]: < 1 nM; `CC(=O)OC12COC1CC(O)C1(C)C(=O)C(OC(=O)c3cccs3)C3=C(C)C(OC(=O)C(O)C(NC(=O)OC(C)(C)C)c4cccnc4)CC(O)(C(OC(=O)c4ccccc4)C21)C3(C)C` (stereo not drawn) [Compound 1948]: < 10 nM. Same read-out and setting: the figure for `CC(=O)OC12COC1CC(O)C1(C)C(=O)C(OC(=O)c3cccs3)C3=C(C)C(OC(=O)C(O)C(NC(=O)OC(C)(C)C)c4ccncc4)CC(O)(C(OC(=O)c4ccccc4)C21)C3(C)C` (stereo not drawn) [Compound 1954] is < 1 nM; for `CC(=O)OC12COC1CC(O)C1(C)C(=O)C(OC(=O)c3cccs3)C3=C(C)C(OC(=O)C(O)C(NC(=O)OC(C)(C)C)C(C)C)CC(O)(C(OC(=O)c4ccccc4)C21)C3(C)C` (stereo not drawn) [Compound 1964] it is < 10 nM; for `CC(=O)OC12COC1CC(O)C1(C)C(=O)C(OC(=O)c3cccs3)C3=C(C)C(OC(=O)C(O)C(NC(=O)OC(C)(C)C)C4CCC4)CC(O)(C(OC(=O)c4ccccc4)C21)C3(C)C` (stereo not drawn) [Compound 1970] it is < 10 nM. Take `CC(=O)OC12COC1CC(O)C1(C)C(=O)C(OC(=O)c3cccs3)C3=C(C)C(OC(=O)C(O)C(NC(=O)OC(C)(C)C)c4ccccc4)CC(O)(C(OC(=O)c4ccccc4)C21)C3(C)C` (stereo not drawn) [Compound 1988]: the IC50 is < 10 nM.
